Reference: publication PMC8347134, “Preparation of Antiproliferative Terpene-Alkaloid Hybrids by Free Radical-Mediated Modification of ent-Kauranic Derivatives” (Molecules, 2021)
Read-outs that look alike come from different tables or passages of the source.

Key:
[1] = test system: HL-60 (acute myeloid leukemia); assay: Cell proliferation assay (IncuCyte); type: cell-based; conditions: for IC50: Homo sapiens, HL-60, 72 h; for SI HL-60: ratio IC50 hTERT RPE-1 / IC50 HL-60
Method: (§1) A parallel cytotoxicity assay was performed on non-cancerous retina cells (hTERT RPE-1) in order to estimate the selectivity of the investigated compounds towards tumor cells. The inhibition of cell proliferation was calculated as IC50 by interpolation based on the semi-log dose response.
(§2) All cell lines were cultured as recommended by the suppliers. Culture media were purchased from Gibco Life Technologies, USA, and supplemented with 10% fetal bovine serum (HyClone, GE Healthcare Life Sciences, Logan, UT, USA). […] All stock solutions were prepared in DMSO.
(§3) After overnight incubation, cells were treated with the test compounds at seven different concentrations ranging from 100 to 6.4 × 10^−3 µM. […] The plates were incubated at 37 °C and monitored for 72 h in an IncuCyte® device (Essen BioScience Inc., Ann Arbor, MI, USA) for real-time imaging. Images were taken every 3 h, with one field imaged per well under 10× magnification. Cell growth was then quantified based on the percent cellular confluence as analysed by the IncuCyte® image analysis software and used to calculate IC50 values by linear interpolation. All tests have been performed in duplicate and the average values have been calculated.

[2] = test system: NCI-H460 (lung carcinoma); assay: Cell proliferation assay (IncuCyte); type: cell-based; conditions: for IC50: Homo sapiens, NCI-H460, 72 h; for SI NCI-H460: ratio IC50 hTERT RPE-1 / IC50 NCI-H460
Method: as §1, §2, §3

[3] = test system: Capan-1 (pancreatic adenocarcinoma); assay: Cell proliferation assay (IncuCyte); type: cell-based; conditions: for IC50: Homo sapiens, CAPAN-1, 72 h; for SI Capan-1: ratio IC50 hTERT RPE-1 / IC50 Capan-1
Method: as §1, §2, §3

[4] = test system: HCT-116 (colorectal carcinoma); assay: Cell proliferation assay (IncuCyte); type: cell-based; conditions: for IC50: Homo sapiens, HCT-116, 72 h; for SI HCT-116: ratio IC50 hTERT RPE-1 / IC50 HCT-116
Method: as §1, §2, §3

[5] = test system: K-562 (chronic myeloid leukemia); assay: Cell proliferation assay (IncuCyte); type: cell-based; conditions: for IC50: Homo sapiens, K562, 72 h; for SI K-562: ratio IC50 hTERT RPE-1 / IC50 K-562
Method: as §1, §2, §3

[6] = test system: DND-41 (acute lymphoblastic leukemia); assay: Cell proliferation assay (IncuCyte); type: cell-based; conditions: for IC50: DND41, 72 h; for SI DND-41: ratio IC50 hTERT RPE-1 / IC50 DND-41
Method: as §1, §2, §3

[7] = test system: Z-138 (non-Hodgkin lymphoma); assay: Cell proliferation assay (IncuCyte); type: cell-based; conditions: for IC50: Homo sapiens, Z-138, 72 h; for SI Z-138: ratio IC50 hTERT RPE-1 / IC50 Z-138
Method: as §1, §2, §3

hTERT RPE-1 = assay: Parallel cytotoxicity assay on non-cancerous retina cells; type: cell-based
Method: as §1, §2, §3

[8] = test system: seven different tumor cell lines; assay: Proliferation assays, best value over the seven tumor cell lines; type: cell-based; conditions: for SImax: highest selectivity index over the tumor cell lines (Figure 4); for IC50 for retina (hTERT RPE-1) cells fold higher than for cancerous cells: highest selectivity indices
Method: as §1, §2, §3

NCI-H460 = test system: NCI-H460; set-up: method as in earlier work; conditions: reference drugs; cited from earlier work
[9] = hTERT-RPE1, 72 h, duplicate, mean ± deviation
[10] = lowest IC50 over the tumor cell lines (Figure 4), read-out: IC50 min

| SMILES | IC50 ([1]; duplicate, mean ± deviation) [µM] | IC50 ([2]; duplicate, mean ± deviation) [µM] | IC50 ([3]; duplicate, mean ± deviation) [µM] | IC50 ([4]; duplicate, mean ± deviation) [µM] | IC50 ([5]; duplicate, mean ± deviation) [µM] | IC50 ([6]; duplicate, mean ± deviation) [µM] | IC50 ([7]; duplicate, mean ± deviation) [µM] | IC50 for retina (hTERT RPE-1) cells fold higher than for cancerous cells [8] | IC50 [8, 10] [µM] | SI NCI-H460 [2] | SI Z-138 [7] | IC50 (hTERT RPE-1; [9]) [µM] | SI Capan-1 [3] | SI HCT-116 [4] | SI DND-41 [6] | SImax [8] | also measured |
| --- | --- | --- | --- | --- | --- | --- | --- | --- | --- | --- | --- | --- | --- | --- | --- | --- | --- |
| CN[C@@H]1C[C@H]2O[C@@](C)([C@@H]1OC)n1c3ccccc3c3c4c(c5c6ccccc6n2c5c31)C(=O)NC4 [SP, staurosporine, reference compound] |  |  |  |  |  |  |  |  |  |  |  |  |  |  |  |  | IC50 ([1]; positive controls): 0.0091 ± 0.0016 µM; IC50 ([2]; positive controls): 0.0022 ± 0.0008 µM; IC50 ([5]; positive controls): 0.0279 ± 0.0032 µM; IC50 ([6]; positive controls): 0.0086 ± 0.0015 µM |
| CC1(C(=O)O)CCCC2(C)C1CCC13CC(CCC21)C(CCC#N)(N=[N+]=[N-])C3O (stereo not shown) [Compound 25] | > 100 | 34 ± 2.9 | 6.4 ± 1.5 | 34.4 ± 0.5 | > 100 | 36.4 ± 9.8 | 52 ± 17.4 |  | 6.4 ± 1.5 |  |  | 33.6 ± 4.5 | 5.3 |  |  | 5.3 |  |
| COC(=O)CCC1(N=[N+]=[N-])C2CCC3C4(C)CCCC(C)(C(=O)OC)C4CCC3(C2)C1O (stereo not shown) [Compound 26] | 41.1 ± 15.9 | 0.6 ± 0.2 | 8.3 ± 1.1 | 9.9 ± 2.7 | 36.9 ± 0.2 | 6.6 ± 1.3 | 21.6 ± 5.4 | up to 43 fold | 0.6 ± 0.2 | 43.2 | 1.2 | 25.9 ± 0.3 | 3.1 | 2.6 | 3.9 | 43.2 |  |
| COC(=O)[C@]1(C)CCC[C@@]2(C)[C@@H]3CC[C@@H]4C[C@@]3(CC[C@@H]21)C[C@@]4(CCC(=O)O)N=[N+]=[N-] [Compound 14] | 46.2 ± 9.1 | 31.1 ± 1.6 | 44.5 ± 8.3 | 5.8 ± 0.1 | 41 | 44.5 ± 4.8 | 22.7 |  |  |  | 1.2 | 26.2 ± 0.9 |  | 4.5 |  |  |  |
| COC(=O)C1(C)CCCC2(C)C1CCC13CC(CCC21)C(CCC(=O)O)(N=[N+]=[N-])C3O (stereo not shown) [Compound 24] | 49.3 ± 5 | 41.8 ± 5.3 | 33.2 ± 7.6 | 18.8 ± 8 | 76.3 ± 1.4 | 38.9 ± 4.1 | 25.2 ± 0.3 |  |  |  | 1.3 | 31.7 ± 3.1 |  | 1.7 |  |  |  |
| CC(=O)O[C@@]12CO[C@@H]1C[C@H](O)[C@@]1(C)C(=O)[C@H](O)C3=C(C)[C@@H](OC(=O)[C@H](O)[C@@H](NC(=O)OC(C)(C)C)c4ccccc4)C[C@@](O)([C@@H](OC(=O)c4ccccc4)[C@H]21)C3(C)C [DT, docetaxel, reference compound] |  |  |  |  |  |  |  |  |  |  |  |  |  |  |  |  | IC50 ([1]; positive controls): 0.0043 ± 0.0016 µM; IC50 ([2]; positive controls): 0.0055 ± 0.0013 µM; IC50 ([3]; positive controls): 0.0042 ± 0.0018 µM; IC50 ([4]; positive controls): 0.0022 ± 0.0008 µM; IC50 ([5]; positive controls): 0.0052 ± 0.0012 µM; IC50 ([6]; positive controls): 0.0047 ± 0.0012 µM; IC50 ([7]; positive controls): 0.0037 ± 0.0007 µM; IC50 (hTERT RPE-1; hTERT-RPE1, positive controls, 72 h): 0.0187 ± 0.0048 µM |
| N.N.[Cl][Pt][Cl] [Cisplatin] |  |  |  |  |  |  |  |  |  |  |  |  |  |  |  |  | IC50 (NCI-H460): 5.33 µM |

The next lines start with results.

| IC50 ([1]; duplicate, mean ± deviation) [µM] | IC50 ([2]; duplicate, mean ± deviation) [µM] | IC50 ([3]; duplicate, mean ± deviation) [µM] | IC50 ([4]; duplicate, mean ± deviation) [µM] | IC50 ([5]; duplicate, mean ± deviation) [µM] | IC50 ([6]; duplicate, mean ± deviation) [µM] | IC50 ([7]; duplicate, mean ± deviation) [µM] | IC50 for retina (hTERT RPE-1) cells fold higher than for cancerous cells [8] | IC50 [8, 10] [µM] | SMILES | SI NCI-H460 [2] | SI Z-138 [7] | IC50 (hTERT RPE-1; [9]) [µM] | SI Capan-1 [3] | SI HCT-116 [4] | SI DND-41 [6] | SImax [8] | also measured |
| --- | --- | --- | --- | --- | --- | --- | --- | --- | --- | --- | --- | --- | --- | --- | --- | --- | --- |
| 19.6 ± 7.7 | 12 ± 1.5 | 37.1 ± 3.9 | 30.7 ± 16.4 | 24.7 ± 11.8 | 36.5 ± 0.7 | 27.6 ± 15.5 |  |  | CCOC(=O)CCC1=C[C@@]23CC[C@H]4[C@@](C)(CCC[C@@]4(C)C(=O)OC)[C@@H]2CC[C@@H]1C3 [Compound 7] | 2.4 | 1.1 | 29.2 ± 1.2 |  |  |  |  | SI HL-60 [1]: 1.5; SI K-562 [5]: 1.2 |
| 3.7 ± 1.3 | 1.4 ± 0.3 | 1.3 ± 0.6 | 0.5 ± 0.2 | 2.5 ± 0.1 | 2.3 ± 0.3 | 2.4 ± 1.1 |  |  | COC(=O)[C@]1(C)CCC[C@@]2(C)[C@@H]3CC[C@@H]4C[C@@]3(CC[C@@H]21)[C@H]1OC(=O)CC=C41 [Compound 22] | 1 |  | 1.4 ± 0.1 | 1.1 | 2.8 |  |  | IC50 ([8]; tumor cell lines, read-out: IC50 values): < 1 µM |
| 8.3 ± 1.3 | 1 ± 0.1 | 11.5 ± 1 | 11.6 ± 0.5 | 3.2 ± 1 | 6.1 ± 1.1 | 9.5 ± 0.9 | up to 43 fold | 1 ± 0.1 | COC(=O)C1(C)CCCC2(C)C3CCC4CC3(CCC12)CC41CCCN1 (stereo not shown) [Compound 13] | 32.2 | 3.4 | 32.2 ± 2 | 2.8 | 2.8 | 5.3 | 32.2 | SI HL-60 [1]: 3.9; SI K-562 [5]: 10.1 |
| 3 ± 1.4 | 1.3 ± 0.1 | 1.7 ± 0.5 | 1 ± 0.4 | 8.8 ± 2.2 | 1.4 ± 0.3 | 0.5 ± 0.2 | up to 43 fold | 0.5 ± 0.2 | CCOC(=O)CC[C@@]1(N=[N+]=[N-])C[C@@]23CC[C@H]4[C@@](C)(CCC[C@@]4(C)C(=O)OC)[C@@H]2CC[C@@H]1C3 [Compound 11] | 1.4 | 3.6 | 1.8 ± 0.4 | 1.1 | 1.8 | 1.3 | 3.6 |  |
| 38 ± 11.8 | 1.9 ± 0.2 | 3.7 ± 1.7 | 4 ± 3.7 | 56.5 ± 2.8 | 8.3 ± 2 | 39.8 ± 10.9 | up to 43 fold | 1.9 ± 0.2 | COC(=O)C1(C)CCCC2(C)C1CCC13CC(CCC21)C1(CCC(=O)N1)C3O (stereo not shown) [Compound 27] | 14.6 |  | 27.7 ± 4.3 | 7.5 | 6.9 | 3.3 | 14.6 |  |
| 33.6 ± 2.6 | 15.4 ± 6 | 18.1 ± 3.4 | 19 ± 5.7 | 58.4 ± 2.5 | 7.8 ± 1 | 22.1 ± 11.4 |  | 7.8 ± 1 | COC(=O)C1(C)CCCC2(C)C3CCC4CC3(C=C4CCC#N)CCC12 (stereo not shown) [Compound 16] | 2.5 | 1.7 | 38.2 ± 5.1 | 2.1 | 2.0 | 4.9 | 4.9 | SI HL-60 [1]: 1.1 |
| 38.3 ± 17.8 | 1.4 ± 0.1 | 1.2 ± 0.7 | 0.8 ± 0.2 | 36.4 ± 11.5 | 21.4 ± 10.1 | 52 ± 33.4 | up to 43 fold | 0.8 ± 0.2 | COC(=O)C1(C)CCCC2(C)C3CCC4CC3(CCC12)CC41CCC(=O)N1 (stereo not shown) [Compound 12] | 5.4 |  | 7.6 ± 0.5 | 6.3 | 9.5 |  | 9.5 |  |
